Measurements: the kinase profiling compilation of Christmann-Franck et al. (2016)

Columns and labels:
Assay in all cases: KINOMEscan competition binding
Conditions in all cases: compound 10.0 µM
MAP3K2 (human) = MAP3K2 (human) (UniProt Q9Y2U5)
PIK3CG (human) = PIK3CG (human) (UniProt P48736)
CDK14 (human) = CDK14 (human) (UniProt O94921)
PRKX (human) = PRKX (human) (UniProt P51817)
FER (human) = FER (human) (UniProt P16591)
SRPK3 (human) = SRPK3 (human) (UniProt Q9UPE1)
BMX (human) = BMX (human) (UniProt P51813)
STK35 (human) = STK35 (human) (UniProt Q8TDR2)
SRMS (human) = SRMS (human) (UniProt Q9H3Y6)
NTRK2 (human) = NTRK2 (human) (UniProt Q16620)
AXL (human) = AXL (human) (UniProt P30530)
MAP3K12 (human) = MAP3K12 (human) (UniProt Q12852)
LCK (human) = LCK (human) (UniProt P06239)
EPHA4 (human) = EPHA4 (human) (UniProt P54764)
PAK2 (human) = PAK2 (human) (UniProt Q13177)
RPS6KA6 KD1 (human) = RPS6KA6 KD1 (human) (UniProt Q9UK32)
IKBKB (human) = IKBKB (human) (UniProt O14920)
MAPK4 (human) = MAPK4 (human) (UniProt P31152)
MYLK2 (human) = MYLK2 (human) (UniProt Q9H1R3)
DMPK (human) = DMPK (human) (UniProt Q09013)
KDR (human) = KDR (human) (UniProt P35968)
MST1R (human) = MST1R (human) (UniProt Q04912)
GRK4 (human) = GRK4 (human) (UniProt P32298)
[1] = system: KIT (human), P10721 [V559D]
CDK5 (human) = CDK5 (human) (UniProt Q00535)
HIPK3 (human) = HIPK3 (human) (UniProt Q9H422)
MAPK3 (human) = MAPK3 (human) (UniProt P27361)
LATS2 (human) = LATS2 (human) (UniProt Q9NRM7)
ITK (human) = ITK (human) (UniProt Q08881)
MAP4K1 (human) = MAP4K1 (human) (UniProt Q92918)
SLK (human) = SLK (human) (UniProt Q9H2G2)
DAPK1 (human) = DAPK1 (human) (UniProt P53355)
MYO3B (human) = MYO3B (human) (UniProt Q8WXR4)
PRKCE (human) = PRKCE (human) (UniProt Q02156)
CDC2L2 (human) = CDC2L2 (human) (UniProt Q9UQ88)
[2] = system: FLT3 (human), P36888 [N841I]
NEK1 (human) = NEK1 (human) (UniProt Q96PY6)
CSNK2A1 (human) = CSNK2A1 (human) (UniProt P68400)
MAP4K3 (human) = MAP4K3 (human) (UniProt Q8IVH8)
KIT (human) = KIT (human) (UniProt P10721)
SIK2 (human) = SIK2 (human) (UniProt Q9H0K1)
BRAF (human) = BRAF (human) (UniProt P15056)
Sequence of BRAF (human) (P15056 whole entry, looked up): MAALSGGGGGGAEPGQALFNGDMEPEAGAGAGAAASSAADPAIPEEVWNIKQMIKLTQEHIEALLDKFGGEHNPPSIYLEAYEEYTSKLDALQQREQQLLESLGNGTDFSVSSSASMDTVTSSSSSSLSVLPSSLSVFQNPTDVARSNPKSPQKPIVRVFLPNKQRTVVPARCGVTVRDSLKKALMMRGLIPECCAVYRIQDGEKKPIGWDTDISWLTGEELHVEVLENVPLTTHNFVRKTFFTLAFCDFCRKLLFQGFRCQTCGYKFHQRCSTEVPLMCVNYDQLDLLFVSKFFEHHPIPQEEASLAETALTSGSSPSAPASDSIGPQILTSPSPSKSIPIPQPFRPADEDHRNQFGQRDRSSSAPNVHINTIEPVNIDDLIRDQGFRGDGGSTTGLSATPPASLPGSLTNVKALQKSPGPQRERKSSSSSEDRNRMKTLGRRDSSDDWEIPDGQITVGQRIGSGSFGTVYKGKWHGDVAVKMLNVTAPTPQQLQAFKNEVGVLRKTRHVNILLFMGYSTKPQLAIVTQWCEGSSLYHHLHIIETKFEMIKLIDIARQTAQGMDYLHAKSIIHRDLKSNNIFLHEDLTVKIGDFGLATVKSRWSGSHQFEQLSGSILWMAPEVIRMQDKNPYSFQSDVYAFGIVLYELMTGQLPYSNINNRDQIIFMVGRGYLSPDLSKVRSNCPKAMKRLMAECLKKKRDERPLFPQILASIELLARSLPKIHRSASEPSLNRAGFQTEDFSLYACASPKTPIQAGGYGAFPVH

Sequence of MAP4K1 (human) (Q92918 whole entry, looked up): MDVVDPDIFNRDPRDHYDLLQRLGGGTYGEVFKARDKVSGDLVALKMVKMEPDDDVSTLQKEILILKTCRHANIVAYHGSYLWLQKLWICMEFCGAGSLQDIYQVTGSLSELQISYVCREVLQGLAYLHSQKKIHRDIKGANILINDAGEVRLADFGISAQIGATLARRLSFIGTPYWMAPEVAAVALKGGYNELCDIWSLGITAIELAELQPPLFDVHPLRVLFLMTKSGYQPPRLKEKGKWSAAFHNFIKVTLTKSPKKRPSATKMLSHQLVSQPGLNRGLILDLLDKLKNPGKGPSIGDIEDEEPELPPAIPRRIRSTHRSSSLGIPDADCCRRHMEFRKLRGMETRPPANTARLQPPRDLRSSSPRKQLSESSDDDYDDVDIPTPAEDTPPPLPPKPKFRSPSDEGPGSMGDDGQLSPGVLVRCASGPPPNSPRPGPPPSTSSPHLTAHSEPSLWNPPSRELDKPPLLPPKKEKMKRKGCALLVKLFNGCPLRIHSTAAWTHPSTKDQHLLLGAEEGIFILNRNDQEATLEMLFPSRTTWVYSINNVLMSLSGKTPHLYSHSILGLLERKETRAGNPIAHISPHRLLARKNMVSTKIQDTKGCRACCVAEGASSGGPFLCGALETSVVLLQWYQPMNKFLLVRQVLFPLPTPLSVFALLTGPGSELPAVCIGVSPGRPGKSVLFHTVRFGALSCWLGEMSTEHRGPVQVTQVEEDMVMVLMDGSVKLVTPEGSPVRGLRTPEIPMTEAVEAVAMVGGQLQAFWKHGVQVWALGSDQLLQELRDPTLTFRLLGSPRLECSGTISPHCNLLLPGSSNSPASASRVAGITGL
Sequence of CDK14 (human) (O94921 whole entry, looked up): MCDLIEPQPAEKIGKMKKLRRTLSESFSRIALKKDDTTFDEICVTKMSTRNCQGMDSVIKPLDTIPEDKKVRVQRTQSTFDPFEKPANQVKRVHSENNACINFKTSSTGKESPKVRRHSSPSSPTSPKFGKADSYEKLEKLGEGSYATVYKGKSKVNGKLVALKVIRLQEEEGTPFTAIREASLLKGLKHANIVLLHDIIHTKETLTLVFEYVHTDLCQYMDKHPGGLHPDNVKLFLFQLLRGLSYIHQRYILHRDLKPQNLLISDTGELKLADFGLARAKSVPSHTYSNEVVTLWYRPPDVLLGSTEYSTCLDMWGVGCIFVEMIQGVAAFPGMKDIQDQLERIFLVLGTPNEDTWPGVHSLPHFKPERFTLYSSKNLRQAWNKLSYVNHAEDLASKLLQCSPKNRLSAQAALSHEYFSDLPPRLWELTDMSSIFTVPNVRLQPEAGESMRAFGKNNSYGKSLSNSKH
Sequence of EPHA4 (human) (P54764 whole entry, looked up): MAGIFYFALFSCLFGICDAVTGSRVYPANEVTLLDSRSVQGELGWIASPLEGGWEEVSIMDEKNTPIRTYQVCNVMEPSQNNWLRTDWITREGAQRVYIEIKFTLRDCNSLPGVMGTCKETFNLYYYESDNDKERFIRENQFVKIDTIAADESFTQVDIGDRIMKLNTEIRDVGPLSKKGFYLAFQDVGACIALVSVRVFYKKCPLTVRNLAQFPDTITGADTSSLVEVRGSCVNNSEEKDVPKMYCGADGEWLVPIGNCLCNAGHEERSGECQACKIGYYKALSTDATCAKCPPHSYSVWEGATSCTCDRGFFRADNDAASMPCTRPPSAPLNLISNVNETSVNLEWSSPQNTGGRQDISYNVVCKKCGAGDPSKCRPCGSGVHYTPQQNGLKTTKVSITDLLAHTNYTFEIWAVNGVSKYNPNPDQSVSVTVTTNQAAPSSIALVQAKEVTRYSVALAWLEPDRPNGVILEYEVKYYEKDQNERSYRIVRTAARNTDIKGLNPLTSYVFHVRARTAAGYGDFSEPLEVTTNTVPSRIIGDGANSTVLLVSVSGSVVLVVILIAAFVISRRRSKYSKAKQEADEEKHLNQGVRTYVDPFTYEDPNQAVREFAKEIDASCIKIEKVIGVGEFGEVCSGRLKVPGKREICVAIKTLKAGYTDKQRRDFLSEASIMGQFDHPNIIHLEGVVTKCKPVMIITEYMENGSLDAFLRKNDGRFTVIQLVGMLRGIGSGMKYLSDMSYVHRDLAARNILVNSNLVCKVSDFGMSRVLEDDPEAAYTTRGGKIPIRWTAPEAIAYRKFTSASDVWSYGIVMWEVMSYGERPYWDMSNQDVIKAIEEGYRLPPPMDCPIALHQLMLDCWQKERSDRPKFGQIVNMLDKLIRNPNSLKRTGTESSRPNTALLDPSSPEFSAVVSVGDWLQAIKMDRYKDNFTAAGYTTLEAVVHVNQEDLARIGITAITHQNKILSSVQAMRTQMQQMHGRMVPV
Sequence of GRK4 (human) (P32298 whole entry, looked up): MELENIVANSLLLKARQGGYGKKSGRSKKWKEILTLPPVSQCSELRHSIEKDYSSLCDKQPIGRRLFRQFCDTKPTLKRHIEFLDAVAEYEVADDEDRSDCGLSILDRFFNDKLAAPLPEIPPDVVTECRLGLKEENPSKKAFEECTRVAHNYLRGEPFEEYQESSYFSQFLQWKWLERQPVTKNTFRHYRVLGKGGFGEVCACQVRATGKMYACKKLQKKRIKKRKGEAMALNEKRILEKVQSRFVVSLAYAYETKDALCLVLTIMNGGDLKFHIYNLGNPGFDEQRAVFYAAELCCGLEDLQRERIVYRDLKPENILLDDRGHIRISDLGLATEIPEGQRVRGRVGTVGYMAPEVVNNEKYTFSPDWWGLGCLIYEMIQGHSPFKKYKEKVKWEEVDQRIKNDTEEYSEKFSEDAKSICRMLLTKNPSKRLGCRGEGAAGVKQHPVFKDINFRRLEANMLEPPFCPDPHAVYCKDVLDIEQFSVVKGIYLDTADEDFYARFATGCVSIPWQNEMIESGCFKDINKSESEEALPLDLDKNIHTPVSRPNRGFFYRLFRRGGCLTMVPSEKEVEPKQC
Sequence of SRMS (human) (Q9H3Y6 whole entry, looked up): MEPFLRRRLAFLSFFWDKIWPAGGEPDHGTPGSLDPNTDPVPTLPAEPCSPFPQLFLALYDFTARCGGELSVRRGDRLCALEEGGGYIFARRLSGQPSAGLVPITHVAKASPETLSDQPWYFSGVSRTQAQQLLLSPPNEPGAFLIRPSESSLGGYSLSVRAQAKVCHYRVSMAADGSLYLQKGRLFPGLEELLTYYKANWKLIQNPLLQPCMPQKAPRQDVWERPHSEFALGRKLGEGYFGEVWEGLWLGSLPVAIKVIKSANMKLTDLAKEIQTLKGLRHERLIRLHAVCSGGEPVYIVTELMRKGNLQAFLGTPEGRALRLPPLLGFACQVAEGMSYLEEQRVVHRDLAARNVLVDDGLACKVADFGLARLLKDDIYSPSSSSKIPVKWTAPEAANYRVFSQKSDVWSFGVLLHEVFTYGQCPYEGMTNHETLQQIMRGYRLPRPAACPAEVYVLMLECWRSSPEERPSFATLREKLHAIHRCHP
Sequence of STK35 (human) (Q8TDR2 whole entry, looked up): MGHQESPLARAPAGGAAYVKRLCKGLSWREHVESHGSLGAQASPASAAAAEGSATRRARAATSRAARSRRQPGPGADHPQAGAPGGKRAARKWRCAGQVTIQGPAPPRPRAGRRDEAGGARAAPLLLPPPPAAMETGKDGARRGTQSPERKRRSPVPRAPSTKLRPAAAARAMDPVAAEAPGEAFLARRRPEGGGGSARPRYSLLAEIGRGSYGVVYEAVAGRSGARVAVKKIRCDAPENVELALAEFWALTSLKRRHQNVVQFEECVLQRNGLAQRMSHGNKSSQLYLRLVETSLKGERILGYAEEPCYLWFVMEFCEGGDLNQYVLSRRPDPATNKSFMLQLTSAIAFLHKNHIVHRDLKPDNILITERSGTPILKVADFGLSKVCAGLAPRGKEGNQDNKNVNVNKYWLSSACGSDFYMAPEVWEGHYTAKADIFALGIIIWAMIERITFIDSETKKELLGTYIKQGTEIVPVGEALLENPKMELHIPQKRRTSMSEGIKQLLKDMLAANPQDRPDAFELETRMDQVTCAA
Sequence of CSNK2A1 (human) (P68400 whole entry, looked up): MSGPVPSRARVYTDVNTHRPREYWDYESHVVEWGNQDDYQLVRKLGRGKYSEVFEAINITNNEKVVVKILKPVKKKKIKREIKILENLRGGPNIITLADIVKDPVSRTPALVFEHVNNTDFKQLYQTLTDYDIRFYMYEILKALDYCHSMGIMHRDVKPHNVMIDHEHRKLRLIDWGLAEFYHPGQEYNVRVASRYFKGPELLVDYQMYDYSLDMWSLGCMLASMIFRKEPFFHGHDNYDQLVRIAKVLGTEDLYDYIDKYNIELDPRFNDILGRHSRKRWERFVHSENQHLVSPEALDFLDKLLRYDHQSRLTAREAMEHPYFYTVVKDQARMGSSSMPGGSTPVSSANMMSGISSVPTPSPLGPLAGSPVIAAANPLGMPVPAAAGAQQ

Question: Which results are given for `Cc1cnc(-c2cnc(NCCNc3ccc(C#N)cn3)nc2-c2ccc(Cl)cc2Cl)[nH]1`?
Answer: kinase still bound, per cent of control (MAP3K2 (human)): 93%; kinase still bound, per cent of control (PIK3CG (human)): 14%; kinase still bound, per cent of control (CDK14 (human)): 100%; kinase still bound, per cent of control (PRKX (human)): 100%; kinase still bound, per cent of control (FER (human)): 100%; kinase still bound, per cent of control (SRPK3 (human)): 100%; kinase still bound, per cent of control (BMX (human)): 100%; kinase still bound, per cent of control (STK35 (human)): 100%; kinase still bound, per cent of control (SRMS (human)): 95%; kinase still bound, per cent of control (NTRK2 (human)): 100%; kinase still bound, per cent of control (AXL (human)): 100%; kinase still bound, per cent of control (MAP3K12 (human)): 100%; kinase still bound, per cent of control (LCK (human)): 100%; kinase still bound, per cent of control (EPHA4 (human)): 100%; kinase still bound, per cent of control (PAK2 (human)): 94%; kinase still bound, per cent of control (RPS6KA6 KD1 (human)): 89%; kinase still bound, per cent of control (IKBKB (human)): 80%; kinase still bound, per cent of control (MAPK4 (human)): 100%; kinase still bound, per cent of control (MYLK2 (human)): 97%; kinase still bound, per cent of control (DMPK (human)): 92%; kinase still bound, per cent of control (KDR (human)): 100%; kinase still bound, per cent of control (MST1R (human)): 100%; kinase still bound, per cent of control (GRK4 (human)): 100%; kinase still bound, per cent of control [1]: 100%; kinase still bound, per cent of control (CDK5 (human)): 67%; kinase still bound, per cent of control (HIPK3 (human)): 100%; kinase still bound, per cent of control (MAPK3 (human)): 100%; kinase still bound, per cent of control (LATS2 (human)): 100%; kinase still bound, per cent of control (ITK (human)): 100%; kinase still bound, per cent of control (MAP4K1 (human)): 100%; kinase still bound, per cent of control (SLK (human)): 63%; kinase still bound, per cent of control (DAPK1 (human)): 84%; kinase still bound, per cent of control (MYO3B (human)): 100%; kinase still bound, per cent of control (PRKCE (human)): 100%; kinase still bound, per cent of control (CDC2L2 (human)): 100%; kinase still bound, per cent of control [2]: 75%; kinase still bound, per cent of control (NEK1 (human)): 79%; kinase still bound, per cent of control (CSNK2A1 (human)): 65%; kinase still bound, per cent of control (MAP4K3 (human)): 96%; kinase still bound, per cent of control (KIT (human)): 100%; kinase still bound, per cent of control (SIK2 (human)): 100%; kinase still bound, per cent of control (BRAF (human)): 50%

Question: With `Cn1cc(C2=C(c3ccc(Cl)cc3Cl)C(=O)NC2=O)c2ccccc21` as the compound, how does the kinase still bound, per cent of control (MAP3K2 (human)) read?
Answer: 100%

Question: And the kinase still bound, per cent of control (PIK3CG (human))?
Answer: 93%

Question: What about the kinase still bound, per cent of control (CDK14 (human)) of the same compound?
Answer: 29%

Question: What about the kinase still bound, per cent of control (PRKX (human)) of the same compound?
Answer: 100%

Question: What about the kinase still bound, per cent of control (FER (human)) of the same compound?
Answer: 100%

Question: And the kinase still bound, per cent of control (SRPK3 (human))?
Answer: 100%

Question: What about the kinase still bound, per cent of control (BMX (human)) of the same compound?
Answer: 78%

Question: And the kinase still bound, per cent of control (STK35 (human))?
Answer: 94%

Question: What about the kinase still bound, per cent of control (SRMS (human)) of the same compound?
Answer: 86%

Question: What about the kinase still bound, per cent of control (NTRK2 (human)) of the same compound?
Answer: 70%

Question: What about the kinase still bound, per cent of control (AXL (human)) of the same compound?
Answer: 100%

Question: What about the kinase still bound, per cent of control (MAP3K12 (human)) of the same compound?
Answer: 90%

Question: And the kinase still bound, per cent of control (LCK (human))?
Answer: 96%

Question: What about the kinase still bound, per cent of control (EPHA4 (human)) of the same compound?
Answer: 100%

Question: And the kinase still bound, per cent of control (PAK2 (human))?
Answer: 61%

Question: And the kinase still bound, per cent of control (RPS6KA6 KD1 (human))?
Answer: 75%

Question: And the kinase still bound, per cent of control (IKBKB (human))?
Answer: 83%

Question: And the kinase still bound, per cent of control (MAPK4 (human))?
Answer: 100%

Question: What about the kinase still bound, per cent of control (MYLK2 (human)) of the same compound?
Answer: 100%

Question: What about the kinase still bound, per cent of control (DMPK (human)) of the same compound?
Answer: 98%

Question: And the kinase still bound, per cent of control (KDR (human))?
Answer: 100%

Question: What about the kinase still bound, per cent of control (MST1R (human)) of the same compound?
Answer: 100%

Question: What about the kinase still bound, per cent of control (GRK4 (human)) of the same compound?
Answer: 100%

Question: And the kinase still bound, per cent of control [1]?
Answer: 87%

Question: And the kinase still bound, per cent of control (CDK5 (human))?
Answer: 47%

Question: What about the kinase still bound, per cent of control (HIPK3 (human)) of the same compound?
Answer: 56%

Question: And the kinase still bound, per cent of control (MAPK3 (human))?
Answer: 99%

Question: And the kinase still bound, per cent of control (LATS2 (human))?
Answer: 100%

Question: And the kinase still bound, per cent of control (ITK (human))?
Answer: 100%

Question: And the kinase still bound, per cent of control (MAP4K1 (human))?
Answer: 62%

Question: And the kinase still bound, per cent of control (SLK (human))?
Answer: 8.7%

Question: And the kinase still bound, per cent of control (DAPK1 (human))?
Answer: 79%

Question: And the kinase still bound, per cent of control (MYO3B (human))?
Answer: 100%

Question: What about the kinase still bound, per cent of control (PRKCE (human)) of the same compound?
Answer: 94%

Question: And the kinase still bound, per cent of control (CDC2L2 (human))?
Answer: 100%

Question: What about the kinase still bound, per cent of control [2] of the same compound?
Answer: 47%

Question: What about the kinase still bound, per cent of control (NEK1 (human)) of the same compound?
Answer: 86%

Question: And the kinase still bound, per cent of control (CSNK2A1 (human))?
Answer: 35%

Question: And the kinase still bound, per cent of control (MAP4K3 (human))?
Answer: 70%

Question: What about the kinase still bound, per cent of control (KIT (human)) of the same compound?
Answer: 79%

Question: And the kinase still bound, per cent of control (SIK2 (human))?
Answer: 89%

Question: And the kinase still bound, per cent of control (BRAF (human))?
Answer: 80%
